Measurements: US11518763B2 (SCOHIA PHARMA, INC., priority 2018, dated 2022)
Where two headings read alike, the source gives them in different places.

Columns and labels:
[1] = from COC(=O)C(C)(C)C(c1ccc2c(c1)CNCC2)c1ccc2c(nnn2CCCCOc2cc(Cl)c(C(=O)O)c(Cl)c2)c1C; amide bond; HATU/DIPEA; DMF; 15.2 mM; 25.0 °C; 4.0 h
Nqo1 mRNA = experiment: Expression of NRF2-downstream gene Nqo1 mRNA in rat kidney and liver after oral administration; assay type: in vivo; conditions: 17 h, male SD rats, 3 mg/kg oral, about 17 hours after administration, read-out: Nqo1 mRNA expression (fold change vs vehicle)
Experimental: Test Example 2: Activity of Compound on Expression of NRF2-Downstream Gene in Rat Kidney and Liver
For the NRF2-downstream gene, Nqol mRNA was examined in regard to the expression level in kidney. Compounds were prepared into 0.5% methylcellulose (MC, METOLOSE, Shin-Etsu Chemical Co., Ltd.) suspensions, and were orally administered to male SD rats (CLEA Japan, Inc.) in a dose of 5 mL/kg. About 17 hours after the administration, the rats were euthanized under anesthesia, and their kidneys and livers were collected. By using an extraction kit, QIAsymphony RNA kit (QIAGEN, catalog number 931636) or RNeasy 96 Kit (QIAGEN, catalog number 74182), total RNA was extracted. From the total RNA thus obtained, cDNA was produced by using a cDNA synthesis kit, Superscript IV VIVO Master Mix (Thermo Fisher Scientific, catalog number 11754-250). By using the cDNA thus obtained with Taqman Fast Advanced Master Mix (Thermo Fisher Scientific, catalog number 4444557) or Platinum Quantitative PCR SuperMix (Thermo Fisher Scientific, catalog number 11743-500), and primers and a probe, the sequences of SEQ ID NO:1. SEQ ID NO:2, and SEQ ID NO: 3, which are shown in Table 4, real-time quantitative PCR was conducted with 7900HT Fast Real-Time PCR Systems or ViiA7 Fast Real-Time PCR Systems (Applied Biosystems). The expression level of Nqol mRNA in each organ of the rat to which the vehicle, 0.5% MC solution, was administered is defined as 1, and the variation is shown in Table 5.

[2] = biological target: T1, binding between NRF2 and KEAP1 (biotinylated human KEAP1 protein (Kelch domain), TAMRA-labeled NRF2 peptide) (Homo sapiens, UniProt Q14145); experiment: Measurement of activity of inhibiting NRF2 binding (NRF2-KEAP1 TR-FRET); conditions: inhibition rate relative to control at 100 nM test compound, TR-FRET, 60 min at room temperature; for inhibition at 0.1 µM: read-out: NRF2 binding inhibitory activity (at 100 nM)
T1 construct: biotinylated human KEAP1 protein (Kelch domain); biotin (biotinylated)
Experimental: Test Example 1: Measurement of Activity of Inhibiting NRF2 Binding
The inhibitory activity of test compounds against the binding between NRF2 and KEAP1 was measured by Time Resolved Fluorescence Resonance Energy Transfer (TR-FRET) method. Into a 384 well plate, 2 μL of a compound, 2 μL of 2 nM solution of biotinylated human KEAP1 protein (Kelch domain), 2 μL of 14 nM solution of TAMRA-labeled NRF2 peptide (TAMRA-Abu(4)-VWYTDIRMRDWM-OH), and 2 μL of 2 nM solution of Tb-labeled streptavidin, all solutions diluted with assay buffer (25 mM HEPES, pH7.5, 150 mM NaCl, 0.01% Tween-20), were added. For some wells, the KEAP1 protein was not added to define control wells. The plate was incubated at room temperature for 60 minutes, and time-resolved fluorescence was measured with a plate reader Envision (manufactured by PerkinElmer). The inhibitory activity for each compound at a compound concentration of 100 nM were calculated as a relative activity value by setting the fluorescence intensity of control wells to which the KEAP1 protein was not added as 100% inhibition, and the fluorescence intensity of wells to which no compound was added as 0%.
The measurement results according to the method described above (inhibition rate of signal value relative to control at 100 nM of test compound) are shown in Table 3.

T1 sequence (Q14145 321-609 limits assumed): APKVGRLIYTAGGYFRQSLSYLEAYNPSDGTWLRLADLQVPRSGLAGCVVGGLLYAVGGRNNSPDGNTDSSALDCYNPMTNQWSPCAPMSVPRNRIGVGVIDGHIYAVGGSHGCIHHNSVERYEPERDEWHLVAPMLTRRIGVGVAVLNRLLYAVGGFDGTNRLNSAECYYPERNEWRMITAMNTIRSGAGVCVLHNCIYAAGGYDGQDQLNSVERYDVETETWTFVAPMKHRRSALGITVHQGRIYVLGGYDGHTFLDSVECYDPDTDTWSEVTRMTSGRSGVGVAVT

inhibition at 0.1 µM [2] [%] | SMILES | fold induction at 3 mg/kg (Nqo1 mRNA; Kidney) | further results
 | COC(=O)C(C)(C)C1c2ccc3c(c2)CN(CC3)C(=O)c2c(Cl)cc(cc2Cl)OCCCCn2nnc3c(C)c1ccc32 (stereo not drawn) |  | ring closure, yield of all isomers [1]: 47.5%
100 | Cc1c2ccc3c1nnn3CCCCCc1ccc(cc1)C(=O)N1CCc3ccc(cc3C1)C2CC(=O)O (stereo not drawn) [Example 11, [32-Methyl-20-oxo-8,9,10,21-tetraazahexacyclo[19.5.3.2^16,19.1^3,7.0^6,10.0^24,28]dotriaconta-1(26),3(32),4,6,8,16,18,24,27,30-decaen-2-yl]acetic acid] | 8 | 
100 | Cc1c2ccc3c1nnn3CCCCCc1ccc(c(Cl)c1)C(=O)N1CCc3ccc(cc3C1)C2CC(=O)O (racemic) [Example 9, [18-Chloro-32-methyl-20-oxo-8,9,10,21-tetraazahexacyclo[19.5.3.2^16,19.1^3,7.0^6,10.0^24,28]dotriaconta-1(26),3(32),4,6,8,16,18,24,27,30-decaen-2-yl]acetic acid] | 5.5 | 
100 | Cc1c2ccc3c1nnn3CCCOCc1cc(Cl)c(c(Cl)c1)C(=O)N1CCc3ccc(cc3C1)C2C(C)(C)C(=O)O (stereo not drawn) [Example 60, 2-[18,30-dichloro-32-methyl-20-oxo-14-oxa-8,9,10,21-tetrazahexacyclo[19.5.3.2^16-19.1^3,7.0^6,10.0^24,28]dotriaconta-1(27),3(32),4,6,8,16,18,24(28),25,30-decaen-2-yl]-2-methylpropanoic acid] | 2.9 | 
100 | Cc1c2ccc3c1nnn3CCCOCc1ccc(c(F)c1)C(=O)N1CCc3ccc(cc3C1)C2CC(=O)O (racemic) [Example 21, [18-Fluoro-32-methyl-20-oxo-14-oxa-8,9,10,21-tetraazahexacyclo[19.5.3.2^16,19.1^3,7.0^6,10.0^24,28]dotriaconta-1(26),3(32),4,6,8,16,18,24,27,30-decaen-2-yl]acetic acid] | 5 | 
100 | CCc1cc2ccc1C(=O)N1CCc3ccc(cc3C1)C(CC(=O)O)c1ccc3c(nnn3CCCCC2)c1C (racemic) [Example 3, [18-Ethyl-32-methyl-20-oxo-8,9,10,21-tetraazahexacyclo[19.5.3.2^16,19.1^3,7.0^6,10.0^24,28]dotriaconta-1(26),3(32),4,6,8,16,18,24,27,30-decaen-2-yl]acetic acid] | 4.7 | 
100 | Cc1c2ccc3c1nnn3CCOCCc1ccc(cc1)C(=O)N1CCc3ccc(cc3C1)C2CC(=O)O (racemic) [Example 29, [32-Methyl-20-oxo-13-oxa-8,9,10,21-tetraazahexacyclo[19.5.3.2^16,19.1^3,7.0^6,10.0^24,28]dotriaconta-1(26),3(32),4,6,8,16,18,24,27,30-decaen-2-yl]acetic acid] | 5.9 | 
100 | Cc1c2ccc3c1nnn3CCCCCc1ccc(c3c1OCC3)C(=O)N1CCc3ccc(cc3C1)C2CC(=O)O (racemic) [Example 4, [33-Methyl-2-oxo-7-oxa-1,15,16,17-tetraazaheptacyclo[22.5.3.2^3,9.1^18,22.0^4,8.0^15,19.0^27,31]pentatriaconta-3,8,16,18(33),19,21,24,26,31,34-decaen-23-yl]acetic acid] | 6.8 | 
100 | Cc1c2ccc3c1nnn3CCCCCc1ccc(c3c1OC(C)(C)C3)C(=O)N1CCc3ccc(cc3C1)C2CC(=O)O (racemic) [Example 5, [6,6,33-Trimethyl-2-oxo-7-oxa-1,15,16,17-tetraazaheptacyclo[22.5.3.2^3,9.1^18,22.0^4,8.0^15,19.0^27,31]pentatriaconta-3,8,16,18(33),19,21,24,26,31,34-decaen-23-yl]acetic acid] | 3.3 | 
100 | Cc1c2ccc3c1nnn3CCCCCc1ccc(c(F)c1)C(=O)N1CCc3ccc(cc3C1)C2CC(=O)O (racemic) [Example 10, [18-Fluoro-32-methyl-20-oxo-8,9,10,21-tetraazahexacyclo[19.5.3.2^16,19.1^3,7.0^6,10.0^24,28]dotriaconta-1(26),3(32),4,6,8,16,18,24,27,30-decaen-2-yl]acetic acid] | 5.9 | 
100 | Cc1c2ccc3c1nnn3CCCOCc1ccc(cc1)C(=O)N1CCc3ccc(cc3C1)C2C(C)(C)C(=O)O (stereo not drawn) [Example 55, 2-methyl-2-[32-methyl-20-oxo-14-oxa-8,9,10,21-tetrazahexacyclo[19.5.3.2^16,19.1^3,7.0^6,10.0^24,28]dotriaconta-1(27),3(32),4,6,8,16,18,24(28),25,30-decaen-2-yl]propanoic acid] | 6.3 | 
100 | Cc1cc2cc(C)c1C(=O)N1CCc3ccc(cc3C1)C(C(C)(C)C(=O)O)c1ccc3c(nnn3CCCOC2)c1C (stereo not drawn) [Example 58, 2-methyl-2-[18,30,32-trimethyl-20-oxo-14-oxa-8,9,10,21-tetrazahexacyclo[19.5.3.2^16,19.1^3,7.0^6,10.0^24,28]dotriaconta-1(27),3(32),4,6,8,16(31),17,19(30),24(28),25-decaen-2-yl]propanoic acid] | 4.8 | 
100 | Cc1c2ccc3c1nnn3CCCCOc1cc(Cl)c(c(Cl)c1)C(=O)N1CCc3ccc(cc3C1)C2C(C)(C)C(=O)O (stereo not drawn) [Example 65, 2-[18,30-dichloro-32-methyl-20-oxo-15-oxa-8,9,10,21-tetrazahexacyclo[19.5.3.2^16,19.1^3,7.0^6,10.0^24,28]dotriaconta-1(27),3(32),4,6,8,16(31),17,19(30),24(28),25-decaen-2-yl]-2-methylpropanoic acid] | 3.6 | 
100 | Cc1c2ccc3c1nnn3CCCCCc1ccc(c3c1CCO3)C(=O)N1CCc3ccc(cc3C1)C2CC(=O)O (racemic) [Example 7, [33-Methyl-2-oxo-5-oxa-1,15,16,17-tetraazaheptacyclo[22.5.3.2^3,9.1^18,22.0^4,8.0^15,19.0^27,31]pentatriaconta-3,8,16,18(33),19,21,24,26,31,34-decaen-23-yl]acetic acid] | 4.3 | 
 | Cc1c2ccc3c1nnn3CCCCCc1ccc(cc1)C(=O)N1CCc3ccc(cc3C1)C2C(C)(C)C(=O)O (stereo not drawn) [Example 62, 2-methyl-2-[32-methyl-20-oxo-8,9,10,21-tetrazahexacyclo[19.5.3.2^16,19.1^3,7.0^6,10.0^24,28]dotriaconta-1(27),3(32),4,6,8,16(31),17,19(30),24(28),25-decaen-2-yl]propanoic acid] | 6.9 | NRF2 binding inhibitory activity (at 100 nM) ([2]; 0.1 µM): 100%
 | Cc1c2ccc3c1nnn3CCCCCc1ccc(cc1)C(=O)N1CCc3ccc(cc3C1)C2CC(=O)O (stereo not drawn) [Example 12, [32-Methyl-20-oxo-8,9,10,21-tetraazahexacyclo[19.5.3.2^16,19.0^3,7.0^6,10.0^24,28]dotriaconta-1(26),3(32),4,6,8,16,18,24,27,30-decaen-2-yl]acetic acid] |  | NRF2 binding inhibitory activity (at 100 nM) [2]: 100%

SMILES | inhibition at 0.1 µM [2] [%] | fold induction at 3 mg/kg (Nqo1 mRNA; Kidney) | further results
Cc1c2ccc3c1nnn3CCCOCc1ccc(cc1)C(=O)N1CCc3ccc(cc3C1)C2CC(=O)O (stereo not drawn) [Example 25, [32-Methyl-20-oxo-14-oxa-8,9,10,21-tetraazahexacyclo[19.5.3.2^16,19.1^3,7.0^6,10.0^24,28]dotriaconta-1(26),3(32),4,6,8,16,18,24,27,30-decaen-2-yl]acetic acid] | 100 | 6.5 | fold induction at 3 mg/kg (Nqo1 mRNA; Liver): 22.2
